pEC50: −log10 of the molar value. Like-named read-outs stand apart in the source and are kept apart here.
Assays:
SMN2 Full reporter = SMN2 Full reporter gene assay (luciferase) in NSC34 stable line; format: cell-based; settings: NSC-34, Biological Example 2, 24 hours, BrightGlo, read-out: SMN Activity (EC50)
Description: SMN2 Full Reporter Construct:
pSMN2 Splicing Luciferase reporter was constructed according to Zhang et al., (An in vivo reporter system for measuring increased inclusion of exon 7 in SMN2 mRNA: potential therapy of SMA. Gene Ther. 2001 October; 8(20):1532-8) via overlapping PCR. The final PCR fragment containing Exon6-Intron6-Exon7 (with a C insertion before 49T)-Intron7-Exon8-Luciferase was inserted to BamHI and NotI site of pCAG-IRESblast expression vector (Chen et al., Establishment and Maintenance of Genomic Methylation Patterns in Mouse Embryonic Stem Cells by Dnmt3a and Dnmt3b. Mol Cell Biol. 2003 August; 23(16):5594-605).
Human SMN2 exon1-exon6 cDNA were amplified by PCR (Forward primer: […]; reverse primer: […]), and Exon6-Intron6 (Forward primer: […]; reverse primer: […]) were fused by overlap PCR to create Exon1-Intron6 fragment, and was inserted into pSMN2 splicing Luciferase reporter via BamHI and HindIII sites to create pSMN2 exon1-6 splicing reporter. SMN2 promoter 5.1 kb fragment was amplified from human genomic DNA by PCR (Forward primer: […]; reverse primer: […]), and inserted between MluI site and BamHI site (Blunted using DNA blunting kit, Takara, Cat #6025) of pSMN2 exon1-6 splicing reporter to replace chicken β-actin promoter and the human cytomegalovirus immediate early enhancer, to finalize the pSMN2-Full-reporter.
SMN2 Full Reporter Stable Clone in NSC34 Cells:
pSMN2-Full reporter was stably transfected into NSC34 cells using Lipofectamine 2000, which were subsequently selected in blasticidin-containing medium for two weeks. Blasticidin-resistant colonies were screened by Luciferase signal and response to SAHA as well as by RT-PCR for alternative splicing of Exon7.
NSC34 SMN2 Full reporter stable line was cultured in DMEM (Invitrogen, Cat:11965)+10% FBS+7 μg/ml Blasticidin. Cells in culture media without Blasticidin were seeded into a 384-well plate at a density of 6000 cells/well and treated with compounds for 24 hours. Luciferase signal was assessed by BrightGlo assay. Eequal volume of BrightGlo reagent (Promega, Cat #E2620) was added to the cells and incubated for 10 minutes at room temperature. Luminescent signal was read in either BioTek or Envision plate reader.
Reporter gene assay conditions: compound concentration range 3 nM-10 uM.

SMN protein = assay: cellular SMN ELISA (SMN protein elevation) in myoblast cell line from SMNdelta7 mouse model; format: cell-based
How it was run: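 SMNdelta7 mouse myoblasts were treated with compounds for 24 h (20 nM–10 uM or 100 pM–10 uM), lysed in modified RIPA buffer, and SMN quantified by sandwich ELISA with HRP/TMB read at 450 nm. Values are fold activation over DMSO control and EC50.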

[1] = Biological Example 1, SMN ELISA, SMNdelta7 mouse myoblasts, 24 hours compound treatment
[2] = Biological Example 1, SMN ELISA, SMNdelta7 mouse myoblasts, 24 hours compound treatment, read-out: SMN Activity (EC50)
[3] = comparison of unsubstituted, ortho-hydroxy and ortho-alkoxy pyridazines, as in Biological Example 1
[4] = comparison of unsubstituted, ortho-hydroxy and ortho-alkoxy pyridazines, as in Biological Example 1, read-out: SMN ELISA EC50

| SMILES | pEC50 (SMN2 Full reporter) | SMN Activity (fold activation over DMSO control) (SMN protein; [1]) | pEC50 (SMN protein; [2]) | also measured |
| --- | --- | --- | --- | --- |
| CCn1ccc2cc(O)c(-c3ccc(OC4CC(C)(C)NC(C)(C)C4)nn3)cc2c1=O [Example 35-2, 2-ethyl-6-hydroxy-7-(6-((2,2,6,6-tetramethylpiperidin-4-yl)oxy)pyridazin-3-yl)isoquinolin-1(2H)-one] | 6.44 | – | – | – |
| Cc1cc2cc(-c3ccc(N(C)C4CC(C)(C)NC(C)(C)C4)nn3)c(O)cc2c(C#N)n1 [Example 30-1, 7-hydroxy-3-methyl-6-(6-(methyl(2,2,6,6-tetramethylpiperidin-4-yl)amino)pyridazin-3-yl)isoquinoline-1-carbonitrile] | 7.52 | – | – | – |
| CC(C)c1cc2cc(O)c(-c3ccc(OC4CC(C)(C)NC(C)(C)C4)nn3)cc2cn1 [Example 36-6, 3-isopropyl-7-(6-((2,2,6,6-tetramethylpiperidin-4-yl)oxy)-pyridazin-3-yl)isoquinolin-6-ol] | 6.19 | – | – | – |
| CN(c1ccc(-c2cc3c(N)nccc3cc2O)nn1)C1CC(C)(C)NC(C)(C)C1 [Example 31-1, 1-amino-7-(6-(methyl(2,2,6,6-tetramethylpiperidin-4-yl)amino)pyridazin-3-yl)isoquinolin-6-ol] | 7.60 | – | – | – |
| CN(c1ccc(-c2cc3cn(C)nc3cc2O)nn1)C1CC(C)(C)NC(C)(C)C1 [Example 34-1, 2-methyl-5-(6-(methyl(2,2,6,6-tetramethylpiperidin-4-yl)amino)pyridazin-3-yl)-2H-indazol-6-ol] | 6.82 | – | – | – |
| CN(c1ccc(-c2cc3cnn(C)c3cc2O)nn1)C1CC(C)(C)NC(C)(C)C1 [Example 34-2, 1-methyl-5-(6-(methyl(2,2,6,6-tetramethylpiperidin-4-yl)amino)pyridazin-3-yl)-1H-indazol-6-ol] | 6.66 | – | – | – |
| CN(c1ccc(-c2cc3c(=O)n(C)c(=O)n(C)c3cc2O)nn1)C1CC(C)(C)NC(C)(C)C1 [Example 32-1, 7-hydroxy-1,3-dimethyl-6-(6-(methyl(2,2,6,6-tetramethylpiperidin-4-yl)amino)pyridazin-3-yl)quinazoline-2,4(1H,3H)-dione] | 6.88 | – | – | – |
| CC(C)c1cc2cc(O)c(-c3ccc(N(C)C4CC(C)(C)NC(C)(C)C4)nn3)cc2cn1 [Example 36-4, 3-isopropyl-7-(6-(methyl(2,2,6,6-tetramethyl-piperidin-4-yl)amino)pyridazin-3-yl)isoquinolin-6-ol] | 6.72 | – | – | – |
| Cc1ccc2cc(-c3ccc(N(C)C4CC(C)(C)NC(C)(C)C4)nn3)c(O)cc2n1 [Example 2-1, 2-methyl-6-(6-(methyl(2,2,6,6-tetramethylpiperidin-4-yl)amino)pyridazin-3-yl)quinolin-7-ol] | – | 3.0 fold | 7.70 | – |
| N#Cc1ccc2cc(-c3ccc(N4CCNCC4)nn3)c(O)cc2n1 [Example 27-2, 7-hydroxy-6-(6-(piperazin-1-yl)pyridazin-3-yl)quinoline-2-carbonitrile] | – | 2.42 fold | 6.40 | – |
| Cc1cc(N2CCCC2)c2cc(-c3ccc(N(C)C4CC(C)(C)NC(C)(C)C4)nn3)c(O)cc2n1 [Example 10-2, 2-methyl-6-(6-(methyl(2,2,6,6-tetramethylpiperidin-4-yl)amino)pyridazin-3-yl)-4-(pyrrolidin-1-yl)quinolin-7-ol] | – | 2.6 fold | 7.19 | – |
| CN(c1ccc(-c2cc3ccc(=O)[nH]c3cc2O)nn1)C1CC(C)(C)NC(C)(C)C1 [Example 9-1, 7-hydroxy-6-(6-(methyl(2,2,6,6-tetramethylpiperidin-4-yl)amino)pyridazin-3-yl)quinolin-2(1H)-one] | – | 2.25 fold | 7.52 | – |
| Cc1cc(N2CCC2)c2cc(-c3ccc(N(C)C4CC(C)(C)NC(C)(C)C4)nn3)c(O)cc2n1 [Example 20-1, 4-(azetidin-1-yl)-2-methyl-6-(6-(methyl(2,2,6,6-tetramethylpiperidin-4-yl)amino)pyridazin-3-yl)quinolin-7-ol] | – | 2.86 fold | 7.08 | – |
| CN(c1ccc(-c2cc3cnc(C4CC4)cc3cc2O)nn1)C1CC(C)(C)NC(C)(C)C1 [Example 36-3, 3-cyclopropyl-7-(6-(methyl(2,2,6,6-tetramethyl-piperidin-4-yl)amino)pyridazin-3-yl)isoquinolin-6-ol] | 7.52 | – | – | – |
| CN(c1ccc(-c2cc3[nH]c(=O)oc3cc2O)nn1)C1CC(C)(C)NC(C)(C)C1 [Example 33-1, 6-hydroxy-5-(6-(methyl(2,2,6,6-tetramethylpiperidin-4-yl)amino)pyridazin-3-yl)benzo[d]oxazol-2(3H)-one] | 5.52 | – | – | – |
| CN1C(=O)CCc2cc(-c3ccc(N(C)C4CC(C)(C)NC(C)(C)C4)nn3)c(O)cc21 [Example 24-1, 7-hydroxy-1-methyl-6-(6-(methyl(2,2,6,6-tetramethylpiperidin-4-yl)amino)pyridazin-3-yl)-3,4-dihydroquinolin-2(1H)-one] | – | 1.74 fold | 7.15 | – |
| Cc1cc2cc(O)c(-c3ccc(N(C)C4CC(C)(C)NC(C)(C)C4)nn3)cc2c(C)n1 [Example 29-3, 1,3-dimethyl-7-(6-(methyl(2,2,6,6-tetramethylpiperidin-4-yl)amino)pyridazin-3-yl)isoquinolin-6-ol] | 7.40 | – | – | – |
| CN(c1ccc(-c2cc3cnccc3cc2O)nn1)C1CC(C)(C)NC(C)(C)C1 [Example 3-2, 7-(6-(methyl(2,2,6,6-tetramethylpiperidin-4-yl)amino)pyridazin-3-yl)isoquinolin-6-ol] | – | 2.75 fold | 8.30 | Fold activation (SMN protein; [3]): 2.8; pEC50 (SMN protein; [4]): 8.30 |
| CCOc1nccc2cc(O)c(-c3ccc(N(C)C4CC(C)(C)NC(C)(C)C4)nn3)cc12 [Example 35-3, 1-ethoxy-7-(6-(methyl(2,2,6,6-tetramethylpiperidin-4-yl)amino)pyridazin-3-yl)isoquinolin-6-ol] | – | 2.26 fold | 7.89 | – |
| CN(C)c1ccnc2cc(O)c(-c3ccc(N(C)C4CC(C)(C)NC(C)(C)C4)nn3)cc12 [Example 21-1, 4-(dimethylamino)-6-(6-(methyl(2,2,6,6-tetramethylpiperidin-4-yl)amino)pyridazin-3-yl)quinolin-7-ol] | – | 3.01 fold | 7.22 | – |
| CCCc1cc2cc(O)c(-c3ccc(OC4CC(C)(C)NC(C)(C)C4)nn3)cc2cn1 [Example 36-5, 3-propyl-7-(6-((2,2,6,6-tetramethylpiperidin-4-yl)oxy)-pyridazin-3-yl)isoquinolin-6-ol] | 6.24 | – | – | – |
| CN(c1ccc(-c2cc3c(C(N)=O)nccc3cc2O)nn1)C1CC(C)(C)NC(C)(C)C1 [Example 26-4, 6-hydroxy-7-(6-(methyl(2,2,6,6-tetramethylpiperidin-4-yl)amino)pyridazin-3-yl)isoquinoline-1-carboxamide] | – | 2.57 fold | 8.15 | – |
| CN(c1ccc(-c2cc3cnccc3cc2O)nn1)C1CC(C)(C)N(C)C(C)(C)C1 [Example 3-1, 7-(6-(methyl(1,2,2,6,6-pentamethylpiperidin-4-yl)amino)pyridazin-3-yl)isoquinolin-6-ol] | – | 3.1 fold | 7.15 | – |
| CN(c1ccc(-c2cc3ccncc3cc2O)nn1)C1CC(C)(C)NC(C)(C)C1 [Example 4-1, 6-(6-(methyl(2,2,6,6-tetramethylpiperidin-4-yl)amino)pyridazin-3-yl)isoquinolin-7-ol] | – | 2.6 fold | 8.22 | Fold activation (SMN protein; [3]): 2.6; pEC50 (SMN protein; [4]): 8.22 |
| CN(c1ccc(-c2cc3ccc(=O)n(C)c3cc2O)nn1)C1CC(C)(C)NC(C)(C)C1 [Example 9-2, 7-hydroxy-1-methyl-6-(6-(methyl(2,2,6,6-tetramethylpiperidin-4-yl)amino)pyridazin-3-yl)quinolin-2(1H)-one] | – | 2.25 fold | 8.15 | – |
| CN(c1ccc(-c2cc3cccnc3cc2O)nn1)C1CC(C)(C)N(C)C(C)(C)C1 [Example 1-2, 6-(6-(methyl(1,2,2,6,6-pentamethylpiperidin-4-yl)amino)pyridazin-3-yl)quinolin-7-ol] | – | 2.4 fold | 6.47 | – |

Source: US11672799B2, “1,4-disubstituted pyridazine quinolne analogs there of and methods for treating SMN-deficiency-related conditions” (Novartis AG, priority 2013, dated 2023)
